This is an account of results in US20060079533A1, “Methods of treating alzheimer's disease” (priority 2001, published 2006).

A word on the melting point: it is the temperature, or range, at which the solid turns liquid.

Structures can show the parent of a compound that is named as a salt.

As to `Clc1ccc([C@H]2CCNC[C@@H]2OCc2ccc3ccccc3c2)cc1` (racemic) (as salt: hydrochloride) [Example 12, (3RS,4RS)-4-(4-chloro-phenyl)-3-(naphthalen-2-ylmethoxy)-piperidine], the melting point is 159 to 161 °C (dec.).
